Key:
dorsal muscles of goats [1] = assay: Osteoinductive potential of sodium fluoride-loaded TCP ceramic, intramuscular implantation in goats (histology, histomorphometry); assay type: in vivo; details: NaF in TCP; improved osteoinductivity
Method: The osteoinductive potential of sodium fluoride-loaded TCP ceramic was tested in a pilot study in muscles of goats. After sterilization (autoclaving at 121° C. for 30 minutes), a volume of 1.0 cc of 1-3 mm ceramic particles (granules) of each TCP-only, TCP with 8 mmol NaF/100 g, TCP with 16 mmol NaF/100 g and TCP with 24 mmol NaF/100 g were implanted in dorsal muscles of 4 goats for 12 weeks (total 4 implants in each of 4 goats).
(§1) Twelve weeks after implantation the animals were sacrificed and the implants were harvested with surrounding tissues and fixed in 1.5% glutaraldehyde in 0.14M cacodylate buffer. The fixed samples were dehydrated in a graded series of aqueous ethanol solutions (70%, 80%, 90%, 96% and 100%×2) and finally embedded in methyl methacrylate (MMA). Using standard procedures non-decalcified sections (10-20 μm) were made and stained with methylene blue and basic fuchsin for histological observation and histomorphometrical analysis regarding bone formation.
Histomorphometry was performed on the sections across the middle of the implants and to the percentage of the formed bone in the available space was measured using image analysis.

dorsal muscles of goats [2] = assay: Osteoinductive potential of TCP ceramic loaded with lithium chloride, intramuscular implantation in goats (histology, histomorphometry); assay type: in vivo; details: LiCl in TCP; improved osteoinductivity
Method: The osteoinductive potential of TCP ceramic loaded with lithium chloride was tested in a pilot study in muscle of goats. After sterilization (autoclaving at 121° C. for 30 minutes), a volume of 1.0 cc of 1-3 mm ceramic particles (granules) of each TCP-only, TCP with 5 mmol LiCl/100 g, TCP with 15 mmol LiCl/100 g and TCP with 45 mmol LiCl/100 g were implanted in dorsal muscles of 4 goats for 12 weeks (total 4 implants in each of 4 goats).
as §1, with “animals Were” for “animals were”, “in MMA. Non-decalcified” for “in methyl methacrylate (MMA). Using standard procedures non-decalcified”, “were prepared” for “were made”
Histomorphometry was performed on the sections across the middle of the implants with regard to the percentage of the formed bone in the available space.

| SMILES | effective amount of trace element in TCP (dorsal muscles of goats [1]) | optimum amount of trace element in TCP (dorsal muscles of goats [1]) | effective amount of trace element in TCP (dorsal muscles of goats [2]) | optimum amount of trace element in TCP (dorsal muscles of goats [2]) |
| --- | --- | --- | --- | --- |
| [F-].[Na+] [NaF, sodium fluoride] | 8-24 mmol NaF/100 g | around 16 mmol NaF/100 g TCP | – | – |
| [Cl-].[Li+] [LiCl, lithium chloride] | – | – | 5-45 mmol LiCl/100 g | around 15 mmol LiCl/100 g TCP |
